Laboratory results taken from patent publication US7691417B2, “Tumor and mutation suppressing plant extract” (Clemson University Research Foundation, priority 2004, dated 2010).

How the values were obtained:
[1] = test system: Salmonella typhimurium (Strain TA 100); experiment: Ames Salmonella/microsome mutagenic test with human S9 mix and mutagen 2-AA; assay type: cell-based
Experimental: Mutagenicity is evaluated following the Ames Salmonella mutagenic assay, a bacterial reverse mutation test using a histidine-dependent […] mutant of Salmonella typhimurium lacking both normal DNA repair mechanisms and the ability to grow on a histidine-free medium. See, D. R. Maron and B. Ames. Mutation Research. 1980. 113:173-215, incorporated herein by reference in its entirety. As one skilled in the art understands, the test assumes that DNA-altering chemicals cause mutations and that mutagenicity is closely associated with carcinogenicity. Induced mutations are estimated by the number of bacteria capable of growing on a histidine-free medium. […]
Colonies chosen to generate overnight cultures were grown in 5 ml nutrient broth #2 (Cat No. CM 0067; Oxid Products; Basingstone, Hampshire, UK) at […] to a density of 1-2×10^9 per ml (absorbance of 0.96±0.2 at 600 nm). […]
Test compounds with the S9 mix were incubated for 30 minutes at 37° C., filter sterilized (0.2 μm Acrodisc® V45W500; Pall Galman, Ann Arbor, Mich.), and divided into two 1.5 ml duplicate aliquots. […] Each aliquot was vortexed briefly and immediately poured on Petri dishes containing the minimal glucose agar (MGA) which were allowed to solidify, then inverted and incubated at 37° C. in the dark for 48 hours, after which revertant colonies on control and test plates were counted.

[2] = test system: tumors induced by A. tumefaciens on potato discs; experiment: Potato disc tumor induction assay (Agrobacterium tumefaciens-induced tumors); assay type: cell-based, Solanium tuberosum L.
Experimental: Tumor suppression is evaluated following the well-known Agrobacterium tumor induction assay procedure. The assay depends on the unique property of Agrobacterium tumefaciens of inserting a portion of its tumor-inducing (Ti) plasmid into the chromosomal DNA of a wounded plant, causing tumor-like growths on the plant, a condition commonly known to those skilled in the art as Crown Gall disease. Antitumor potential is measured by tumor suppression on aseptic potato discs treated with the plant extract. See A. B. Galsky, et al. J. Nat. Cancer Inst. 1981. 67:689-692, incorporated herein by reference, in its entirety. Antitumor activity detected by the Agrobacterium assay is correlated with suppression of tumors in animals; thus, plant extracts that suppress Agrobacterium-induced tumor formation have significant potential as human anticarcinogens.
Antitumor effects of extracts were tested using the Potato Tumor Induction method of McLaughlin's laboratories. 1 A. tumefaciens was cultured in Difco Yeast Extract Medium for a period of 48-72 hours at […] for use in the assay. […]

## Nc1ccc2cc3ccccc3cc2c1 [2-AA, 2-aminianthuracene]
[1]; 2-AA alone (DMSO + S9), no extract
  revertant colonies formed in the presence of 2-AA: 991.6
[1]; 991.6 versus control 48.2
  colonies formed with 2-AA relative to the control: approximately 20 fold

## CC[C@@]1(O)C(=O)OCc2c1cc1n(c2=O)Cc2cc3ccccc3nc2-1 [camptothecin, Camptothecin]
[2]; parallel study, dilution 1:10,000, Table 2
  % INHIBITION (tumor): 100%
[2]; positive inhibitory control of the Table 1 study, camptothecin stock 100 μg/ml
  tumor inhibition: 98.2%
